The values that follow come from ChEMBL document CHEMBL1201862, “PubChem BioAssay data set” (2004).

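Cultured in 96-well plates, cells were exposed to test compound for 48 hours across five concentrations. Here, GI50 denotes the concentration required for 50% inhibition of growth.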 Calls of active or inactive are those of the source. Cut-off read from the data, not from the text of the source: active = GI50 up to about 1.1 µM and inactive = higher.

Some test systems named below: SW-620; MDA-MB-435; UO-31; Hs-578T; OVCAR-8; M14; HCC 2998; SK-MEL-2; MCF7; K562; SK-OV-3; PC-3; U-251; KM12; HT-29; OVCAR-5; ACHN; SK-MEL-5; MDA-MB-231; HOP-92.
Common to all, as to experiment: inhibition of tumour cell growth, NCI panel, 48 h

On to `CC(C)CCc1c(Cl)nc(Cl)nc1Cl`, for which the GI50 in the test with SW-620 was 1.4 µM (inactive); in the test with MDA-MB-435, 6.18 µM (inactive); with UO-31, 20.1 µM (inactive); in the test on Hs-578T, 17.9 µM (inactive); with OVCAR-8 it was > 10 µM (inactive); in the test on M14, 3.61 µM (inactive). Moreover, the GI50 is 16.5 µM (inactive) with HCC 2998; 16 µM (inactive) with SK-MEL-2; 13.8 µM (inactive) in the test with MCF7; 3.41 µM (inactive) in the test on K562; 17 µM (inactive) with SK-OV-3; 13.6 µM (inactive) in the test with PC-3. For the same compound, the GI50 in the test with U-251 is 11.8 µM (inactive); in the test on KM12, > 10 µM (inactive); with HT-29, 12.8 µM (inactive); in the test on OVCAR-5, 28.1 µM (inactive); in the test with ACHN, 21.2 µM (inactive); in the test with SK-MEL-5, 4.07 µM (inactive).

In the case of `CC1(C)Cc2ccccc2C(C)(Cl)C(=O)N1` (centres undefined), the GI50 in the test on SW-620, with MDA-MB-435, with UO-31, in the test on OVCAR-8, in the test on MDA-MB-231 and in the test with M14 was > 10 µM (inactive) throughout. Further, the GI50 with HCC 2998, with MCF7, in the test on K562, with HOP-92, in the test on PC-3 and in the test with U-251 was > 10 µM (inactive) each time. The GI50 in the test on KM12, in the test on HT-29, with OVCAR-5 and in the test on ACHN was > 10 µM (inactive) throughout.

Regarding `CCOC(=O)/C(=C/Nc1c(C)n(C)n(-c2ccccc2)c1=O)C(C)=O`, the GI50 in the test with SW-620, in the test with MDA-MB-435, in the test with UO-31, with OVCAR-8, with MDA-MB-231 and in the test with M14 was > 100 µM (inactive) each time. The GI50 in the test on HCC 2998, in the test with SK-MEL-2, with MCF7, with K562, in the test on HOP-92 and in the test with SK-OV-3 was > 100 µM (inactive) throughout. For the same compound, the GI50 in the test on PC-3, with U-251, in the test with KM12, in the test on OVCAR-5, with ACHN and in the test with SK-MEL-5 was > 100 µM (inactive) each time.

As to `NC(c1ccccc1)(C(F)(F)F)P1(=O)OC(=O)c2ccccc2O1` (centres undefined), the GI50 in the test with SW-620, with MDA-MB-435, in the test on UO-31, in the test on OVCAR-8, with MDA-MB-231 and with M14 was > 100 µM (inactive) in each case. Also, the GI50 in the test on HCC 2998 is > 100 µM (inactive); in the test with SK-MEL-2 it was > 100 µM (inactive); in the test with MCF7, > 100 µM (inactive); in the test on K562 it was > 100 µM (inactive); with HOP-92 it was 20.9 µM (inactive); in the test on SK-OV-3, 26.9 µM (inactive). Besides, the GI50 in the test on PC-3, in the test on U-251, in the test with KM12, in the test with HT-29, in the test on OVCAR-5 and with ACHN was > 100 µM (inactive) each time. In addition, in the test with SK-MEL-5, the GI50 is 8.07 µM (inactive).

Regarding `Cc1cc(C)nc(NS(=O)(=O)c2ccc(NC(=O)c3cccc4c(Nc5ccc(S(=O)(=O)N=C(N)N)cc5)c5ccccc5nc34)cc2)n1`, the GI50 is 9.48 µM (inactive) with SW-620; 46.6 µM (inactive) in the test with UO-31; 7.94 µM (inactive) with OVCAR-8; 94.6 µM (inactive) in the test with M14; 4.85 µM (inactive) with HCC 2998; 52.8 µM (inactive) with SK-MEL-2. In addition, the GI50 with K562 was 7.6 µM (inactive); with HOP-92, 19.9 µM (inactive); in the test with SK-OV-3, > 100 µM (inactive); with U-251 it was 33.9 µM (inactive); with KM12 it was 6.17 µM (inactive); in the test on HT-29, 37.1 µM (inactive). In addition, the GI50 was > 100 µM (inactive) in the test on OVCAR-5, 47.1 µM (inactive) with ACHN and 54.8 µM (inactive) with SK-MEL-5.

As for `CC[C@H](C)C1=C(OC(C)=O)[N@+]2([O-])Oc3ccc(-c4c(OC(C)=O)c(OC(C)=O)c(-c5ccc(OC(C)=O)cc5)c(OC(C)=O)c4OC(C)=O)cc3O[C@]2([C@@H](C)CC)C(=O)N1OC(C)=O`, the GI50 in the test with SW-620 is 13 µM (inactive); in the test with MDA-MB-435, 16 µM (inactive); in the test on UO-31, 21.4 µM (inactive); in the test on OVCAR-8, 11.5 µM (inactive); in the test with MDA-MB-231, 23.9 µM (inactive); in the test on M14, 16.9 µM (inactive). The GI50 in the test on HCC 2998 is 0.00766 µM (active); in the test on SK-MEL-2, 9.64 µM (inactive); in the test on MCF7 it was 17.5 µM (inactive); in the test with K562, 14.5 µM (inactive); in the test with SK-OV-3 it was 12.7 µM (inactive); in the test with PC-3 it was 8.59 µM (inactive). Further, the GI50 in the test on U-251 was 16 µM (inactive); in the test on KM12 it was 14.4 µM (inactive); in the test with HT-29, 15.6 µM (inactive); with OVCAR-5 it was 29.2 µM (inactive); in the test on ACHN, 15.5 µM (inactive); in the test on SK-MEL-5, 10.2 µM (inactive).

As to `CCOc1ccc(C2=NN(CC)C(=O)C(C3C(=O)N(c4ccccc4)N=C3C)C2)cc1` (centres undefined), the GI50 with SW-620, with UO-31, in the test with OVCAR-8, in the test on M14, in the test with HCC 2998 and with SK-MEL-2 was > 100 µM (inactive) in each case. Also, the GI50 in the test on K562, with HOP-92, with SK-OV-3, in the test on U-251, with KM12 and in the test on HT-29 was > 100 µM (inactive) each time. The GI50 in the test on OVCAR-5, with ACHN and with SK-MEL-5 was > 100 µM (inactive) in each case.

As to `CN/N=C(/C=C/c1ccccc1)C(C)C`, the GI50 in the test on SW-620, in the test on MDA-MB-435, in the test with UO-31, in the test on Hs-578T, with OVCAR-8 and in the test on M14 was > 100 µM (inactive) each time. Also, the GI50 in the test with HCC 2998, with SK-MEL-2, in the test with MCF7, in the test on K562, in the test on SK-OV-3 and in the test with PC-3 was > 100 µM (inactive) throughout. The GI50 with U-251, with KM12, in the test on HT-29, with OVCAR-5, in the test with ACHN and in the test with SK-MEL-5 was > 100 µM (inactive) in each case.

Regarding `c1ccc(C2(c3ccccc3)SSC3(S2)C2CC4CC(C2)CC3C4)cc1` (centres undefined), the GI50 in the test on SW-620, in the test with UO-31, with OVCAR-8, in the test with M14, in the test on HCC 2998 and in the test with SK-MEL-2 was > 100 µM (inactive) throughout. For the same compound, the GI50 in the test with K562, in the test with HOP-92, with SK-OV-3, in the test on U-251, with KM12 and in the test with HT-29 was > 100 µM (inactive) in each case. Besides, the GI50 with OVCAR-5, in the test on ACHN and with SK-MEL-5 was > 100 µM (inactive) throughout.

Consider `CCCCN(CCCC)CC(O)c1cc(-c2ccc(Cl)c(Cl)c2)nc2c(Cl)cc(Cl)cc12` (centres undefined), for which the GI50 is 15.6 µM (inactive) in the test on SW-620; > 100 µM (inactive) in the test on MDA-MB-435; 66.4 µM (inactive) in the test on UO-31; > 100 µM (inactive) in the test with OVCAR-8; 7.64 µM (inactive) in the test with MDA-MB-231; 16.2 µM (inactive) with HCC 2998. Besides, the GI50 in the test with SK-MEL-2 was > 100 µM (inactive); with MCF7, 6.84 µM (inactive); in the test on K562, > 10 µM (inactive); with SK-OV-3, > 100 µM (inactive); with PC-3, 36.4 µM (inactive); with U-251 it was > 100 µM (inactive). Besides, the results for the GI50 with HT-29, in the test with OVCAR-5 and in the test on ACHN were > 100 µM (inactive), > 100 µM (inactive) and 89.1 µM (inactive), respectively.

Turning to `NNC(=O)COc1nc(-c2cccs2)nc2ccc(I)cc12`, the GI50 was 34.5 µM (inactive) in the test on SW-620; 20.1 µM (inactive) in the test with MDA-MB-435; 21.1 µM (inactive) in the test with UO-31; 29 µM (inactive) with OVCAR-8; 23.1 µM (inactive) in the test on M14; 20 µM (inactive) in the test with HCC 2998. Besides, the GI50 is 24.5 µM (inactive) in the test with SK-MEL-2; 15.8 µM (inactive) in the test with MCF7; 18 µM (inactive) with HOP-92; 20.6 µM (inactive) with SK-OV-3; 25.4 µM (inactive) in the test on PC-3; 18.7 µM (inactive) in the test on U-251. Further, the GI50 is 17.1 µM (inactive) in the test on KM12; 34.4 µM (inactive) in the test on HT-29; 28.4 µM (inactive) with OVCAR-5; 22.5 µM (inactive) with ACHN; 20.1 µM (inactive) with SK-MEL-5.
